Reference: paper PMC7069944, “Amino acid levels determine metabolism and CYP450 function of hepatocytes and hepatoma cell lines” (Nature Communications, 2020)
Several values for one entry are separate records, joined by “and”; a condition that tells them apart may be missing. Equal entries are not always repeated.

What was measured:
HLC = test: Repeated-exposure DILI training compounds, resazurin conversion, HLC; settings: replicates, listed as Triglitazone
Procedure, shortened: (§1)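 PSC-derived cells differentiated in 384-well format, plus HepG2 seeded at 40,000 cells/well, received drugs after 8 h of attachment; untreated wells served as negative controls. Viability was measured by resazurin conversion and related to therapeutic Cmax values.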

HepG2 = test: Repeated-exposure DILI training compounds, resazurin conversion, HepG2; settings: replicates, listed as Triglitazone
Procedure, shortened: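 Viability by resazurin conversion, correlated with Cmax, was assessed after drug exposure in 384-well cultures of differentiated PSCs and of HepG2 (40,000 cells/well). Dosing began 8 h post-attachment, with untreated wells as negative control.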

HC3X = test: Repeated-exposure DILI training compounds, resazurin conversion, HC3X; settings: for resazurin conversion (Supplementary Figure 7D): HC3X AAGLY D40, replicates, listed as Triglitazone
Procedure, shortened: as §1

HC6X = test: Repeated-exposure DILI training compounds, resazurin conversion, HC6X; settings: replicates, listed as Triglitazone
Procedure, shortened: as §1

## Cc1c(C)c2c(c(C)c1O)CCC(C)(COc1ccc(CC3SC(=O)NC3=O)cc1)O2 (centres unmarked) [troglitazone]
HLC; HLC AAGLY D40, 5 uM
  resazurin conversion (Supplementary Figure 7D): 153.5 and 121.4 and 146 and 101.6 and 123.2 and 125.5
HLC; HLC AAGLY D40, 10 uM
  resazurin conversion (Supplementary Figure 7D): 135.4 and 92.9 and 151 and 74.5 and 125.5 and 149.7
HLC; HLC AAGLY D40, 30 uM
  resazurin conversion (Supplementary Figure 7D): 16.5 and 14.5 and 14 and 11.9 and 15.8 and 12.7
HLC; HLC AAGLY D40, 50 uM
  resazurin conversion (Supplementary Figure 7D): 11.8 (3×) and 11.4 (2×) and 11.7
HLC; HLC AAGLY D40, 100 uM
  resazurin conversion (Supplementary Figure 7D): 11.9 (2×) and 12.3 and 12.2 and 12.1 (2×)
HLC; HLC AAGLY D40, 300 uM
  resazurin conversion (Supplementary Figure 7D): 12.4 and 12.8 (2×) and 12.6 (2×) and 12.7
HLC; HLC AAGLY D40, 600 uM
  resazurin conversion (Supplementary Figure 7D): 13.8 (2×) and 13.7 and 13.2 and 13.4 and 13.6
HLC; HLC AAGLY D40, 1200 uM
  resazurin conversion (Supplementary Figure 7D): 14.9 and 14.8 and 14.3 and 15 and 14.7 and 14.5
HLC; HLC LDM D40, 3 uM
  resazurin conversion (Supplementary Figure 7D): 124.9 and 86.8 and 81.1 and 83.4
HLC; HLC LDM D40, 5 uM
  resazurin conversion (Supplementary Figure 7D): 112.5 and 109.2 and 104.5 and 65.4 and 87.8 and 121.6
HLC; HLC LDM D40, 10 uM
  resazurin conversion (Supplementary Figure 7D): 119.2 and 88.2 and 119.3 and 84.6 and 119 and 129.3
HLC; HLC LDM D40, 30 uM
  resazurin conversion (Supplementary Figure 7D): 64.9 and 19.9 and 24.5 and 26.5 and 51.6 and 125
HLC; HLC LDM D40, 50 uM
  resazurin conversion (Supplementary Figure 7D): 9.4 and 9.5 and 9.6 and 12.8 and 134 and 114.9
HLC; HLC LDM D40, 100 uM
  resazurin conversion (Supplementary Figure 7D): 9.6 and 9.9 and 9.7 and 9.4 and 10.4 and 10.1
HLC; HLC LDM D40, 300 uM
  resazurin conversion (Supplementary Figure 7D): 10.1 (2×) and 10.3 and 9.6 and 10 and 10.2
HLC; HLC LDM D40, 600 uM
  resazurin conversion (Supplementary Figure 7D): 10.4 and 10.5 and 10.2 (2×) and 10.8 and 11.3
HLC; HLC LDM D40, 1200 uM
  resazurin conversion (Supplementary Figure 7D): 11.2 (3×) and 11.3 and 11.1 and 11.5
HepG2; HepG2 AAGLY D30, 3 uM
  resazurin conversion (Supplementary Figure 7D): 98.3 and 94.5 and 92
HepG2; HepG2 AAGLY D30, 5 uM
  resazurin conversion (Supplementary Figure 7D): 68.5 and 110.9 and 79 and 93.8 and 74.1 and 107
HepG2; HepG2 AAGLY D30, 10 uM
  resazurin conversion (Supplementary Figure 7D): 74 and 89.9 and 83.3 and 84.8 and 74.9 and 104.6
HepG2; HepG2 AAGLY D30, 30 uM
  resazurin conversion (Supplementary Figure 7D): 79.1 and 100.2 and 93 and 115.8 and 83.4 and 116.8
HepG2; HepG2 AAGLY D30, 50 uM
  resazurin conversion (Supplementary Figure 7D): 83.1 and 117.7 and 95.2 and 107.4 and 94.4 and 118.1
HepG2; HepG2 AAGLY D30, 100 uM
  resazurin conversion (Supplementary Figure 7D): 64.7 and 70 and 66.6 and 77.3 and 64.4 and 73.3
HepG2; HepG2 AAGLY D30, 300 uM
  resazurin conversion (Supplementary Figure 7D): 29.5 and 32.5 and 30.3 and 31.2 and 30.4 and 32
HepG2; HepG2 AAGLY D30, 600 uM
  resazurin conversion (Supplementary Figure 7D): 29.5 and 33.9 and 30.8 and 32.7 and 30.9 and 34.9
HepG2; HepG2 AAGLY D30, 1200 uM
  resazurin conversion (Supplementary Figure 7D): 31 and 33.3 and 30.9 and 31.3 and 30.2 and 34.1
HepG2; HepG2 CTL D7, 3 uM
  resazurin conversion (Supplementary Figure 7D): 96.5
HepG2; HepG2 CTL D7, 5 uM
  resazurin conversion (Supplementary Figure 7D): 108.7 and 103 and 108 and 101.8 and 110.4 and 108.6
HepG2; HepG2 CTL D7, 10 uM
  resazurin conversion (Supplementary Figure 7D): 100.5 and 91 and 96 and 94.6 and 100.7 and 102
HepG2; HepG2 CTL D7, 30 uM
  resazurin conversion (Supplementary Figure 7D): 107.7 and 102.1 and 104.6 and 106.5 and 111.7 and 103.3
HepG2; HepG2 CTL D7, 50 uM
  resazurin conversion (Supplementary Figure 7D): 106.3 and 99.2 and 103.6 and 101.1 and 106.7 and 102.4
HepG2; HepG2 CTL D7, 100 uM
  resazurin conversion (Supplementary Figure 7D): 21.4 and 9.6 and 9.2 and 17 and 16.3 and 15.4
HepG2; HepG2 CTL D7, 300 uM
  resazurin conversion (Supplementary Figure 7D): 8.5 (3×) and 8.1 and 8.3 and 8.2
HepG2; HepG2 CTL D7, 600 uM
  resazurin conversion (Supplementary Figure 7D): 8.3 and 8 (2×) and 8.4 and 7.9 (2×)
HepG2; HepG2 CTL D7, 1200 uM
  resazurin conversion (Supplementary Figure 7D): 9.4 and 9.5 and 9.7 and 9.2 and 9.3 and 9.1
HC3X; 3 uM
  resazurin conversion (Supplementary Figure 7D): 100.4 and 118.6 and 117.6 and 139.7 and 113 and 95.6
HC3X; 5 uM
  resazurin conversion (Supplementary Figure 7D): 108.1 and 113 and 110 and 124 and 122.3 and 125.6
HC3X; 10 uM
  resazurin conversion (Supplementary Figure 7D): 64.3 and 64.1 and 94.3 and 59.1 and 78.4 and 71.8
HC3X; 30 uM
  resazurin conversion (Supplementary Figure 7D): 7.7 (3×) and 7.6 (2×) and 7.8
HC3X; 50 uM
  resazurin conversion (Supplementary Figure 7D): 7.8 (4×) and 7.7 and 7.9
HC3X; 100 uM
  resazurin conversion (Supplementary Figure 7D): 7.7 and 7.9 (2×) and 8 (2×) and 7.8
HC3X; 300 uM
  resazurin conversion (Supplementary Figure 7D): 8.6 (2×) and 8.5 and 8.4 and 8.7 and 8.3
HC3X; 600 uM
  resazurin conversion (Supplementary Figure 7D): 8.6 and 9 and 8.5 and 8.7 and 8.8 and 9.1
HC3X; 1200 uM
  resazurin conversion (Supplementary Figure 7D): 8.5 and 8.9 and 8.6 (2×) and 8.8 and 9
HC3X; human
  IC50/Cmax: 1.6
HC6X; HC6X AAGLY D40, 3 uM
  resazurin conversion (Supplementary Figure 7D): 67.6 and 80.5 and 115.9 and 110.8
HC6X; HC6X AAGLY D40, 5 uM
  resazurin conversion (Supplementary Figure 7D): 97.5 and 124.6 and 75.2 and 88 and 91.2 and 78.9
HC6X; HC6X AAGLY D40, 10 uM
  resazurin conversion (Supplementary Figure 7D): 28.6 and 26.8 and 51 and 28.8 and 31.8 and 23.3
HC6X; HC6X AAGLY D40, 30 uM
  resazurin conversion (Supplementary Figure 7D): 17.6 and 19.6 and 21.9 and 19.3 and 17.4 and 18.4
HC6X; HC6X AAGLY D40, 50 uM
  resazurin conversion (Supplementary Figure 7D): 18.5 and 22.2 and 22.6 and 19.7 and 17.5 and 18.3
HC6X; HC6X AAGLY D40, 100 uM
  resazurin conversion (Supplementary Figure 7D): 17.7 (2×) and 19.3 and 19.5 and 17.5 and 18.3
HC6X; HC6X AAGLY D40, 300 uM
  resazurin conversion (Supplementary Figure 7D): 18.9 and 19.1 and 19.4 (2×) and 19.9 and 18.8
HC6X; HC6X AAGLY D40, 600 uM
  resazurin conversion (Supplementary Figure 7D): 20.5 and 21.3 and 23.4 and 22.4 (2×) and 23.3
HC6X; HC6X AAGLY D40, 1200 uM
  resazurin conversion (Supplementary Figure 7D): 19.6 and 19.4 and 20.1 and 19.9 and 18.6 and 18.9
HC6X; HC6X AAGLY D40 Remove dox, 5 uM
  resazurin conversion (Supplementary Figure 7D): 197.5 and 139.5 and 221.6 and 148.2 and 134.8 and 149.8
HC6X; HC6X AAGLY D40 Remove dox, 10 uM
  resazurin conversion (Supplementary Figure 7D): 133 and 100.2 and 218.5 and 104.9 and 119 and 93.7
HC6X; HC6X AAGLY D40 Remove dox, 30 uM
  resazurin conversion (Supplementary Figure 7D): 24.4 and 26.5 and 25.9 (2×) and 27.1 and 24.9
HC6X; HC6X AAGLY D40 Remove dox, 50 uM
  resazurin conversion (Supplementary Figure 7D): 23.5 (2×) and 23.1 and 23.9 and 23.4 and 23.3
HC6X; HC6X AAGLY D40 Remove dox, 100 uM
  resazurin conversion (Supplementary Figure 7D): 24.4 and 24.5 and 24 and 23.7 and 23.5 and 24.2
HC6X; HC6X AAGLY D40 Remove dox, 300 uM
  resazurin conversion (Supplementary Figure 7D): 25.6 and 24.8 (2×) and 25 (2×) and 24.6
HC6X; HC6X AAGLY D40 Remove dox, 600 uM
  resazurin conversion (Supplementary Figure 7D): 26.9 and 26.7 and 26.1 (2×) and 25.7 and 26.3
HC6X; HC6X AAGLY D40 Remove dox, 1200 uM
  resazurin conversion (Supplementary Figure 7D): 28.5 (2×) and 27.6 and 27.4 and 27.9 and 28.4
